Experimental findings from patent US12252497B2, “Ras inhibitors” (Revolution Medicines, Inc., priority 2021, dated 2025) are described below.

Each structure is given as a SMILES string. Where two headings read alike, the source gives them in different places.

The conditions of this data set: ester bond, 18-membered ring.

Where the note is “from CO[C@@H](C)c1ncc(N2CCN3CCCC[C@@H]3C2)cc1-c1c(CC(C)(C)CO)c2cc(-c3cccc(C[C@H](NC(=O)OC(C)(C)C)C(=O)N4CCC[C@@H](C(=O)O)N4)c3)ccc2n1CC(F)(F)F, EDCI.HCl/HOBt/DIPEA, DCM, 12.9 mM, 0.0 °C”, `CO[C@@H](C)c1ncc(N2CCN3CCCC[C@@H]3C2)cc1-c1c2c3cc(ccc3n1CC(F)(F)F)-c1cccc(c1)C[C@H](NC(=O)OC(C)(C)C)C(=O)N1CCC[C@H](N1)C(=O)OCC(C)(C)C2` came in with a ring closure, isolated yield of 65%.
`CCn1c(-c2cc(N3CCN4CCOC[C@@H]4C3)cnc2[C@H](C)OC)c2c3cc(ccc31)-c1cc(cc(C(F)F)c1)C[C@H](NC(=O)OC(C)(C)C)C(=O)N1CCC[C@H](N1)C(=O)OCC(C)(C)C2` showed a ring closure, isolated yield (from CCn1c(-c2cc(N3CCN4CCOC[C@@H]4C3)cnc2[C@H](C)OC)c(CC(C)(C)CO)c2cc(-c3cc(C[C@H](NC(=O)OC(C)(C)C)C(=O)N4CCC[C@@H](C(=O)O)N4)cc(C(F)F)c3)ccc21, EDCI/HOBt/DIEA, DCM, 10.7 mM, 25.0 °C) of 42%.
With `CCn1c(-c2cc(N3CCN4CCC[C@@H]4C3)cnc2[C@H](C)OC)c2c3cc(ccc31)-c1cc(cc(C(F)F)c1)C[C@H](NC(=O)OC(C)(C)C)C(=O)N1CCC[C@H](N1)C(=O)OCC(C)(C)C2`, the ring closure, isolated yield (from CCn1c(-c2cc(N3CCN4CCC[C@@H]4C3)cnc2[C@H](C)OC)c(CC(C)(C)CO)c2cc(-c3cc(C[C@H](NC(=O)OC(C)(C)C)C(=O)N4CCC[C@@H](C(=O)O)N4)cc(C(F)F)c3)ccc21, EDCI/HOBt/DIEA, DCM, 10.1 mM, 25.0 °C) was determined as 78%.
Under “from CCn1c(-c2cc(N3CCN4CCCC[C@@H]4C3)cnc2[C@H](C)OC)c(CC(C)(C)CO)c2cc(N3CCO[C@@H](C[C@H](NC(=O)OC(C)(C)C)C(=O)N4CCC[C@@H](C(=O)O)N4)C3)ccc21, EDCI/HOBt/DIPEA, DMF, 11.2 mM, 25.0 °C”, `CCn1c(-c2cc(N3CCN4CCCC[C@@H]4C3)cnc2[C@H](C)OC)c2c3cc(ccc31)N1CCO[C@@H](C[C@H](NC(=O)OC(C)(C)C)C(=O)N3CCC[C@H](N3)C(=O)OCC(C)(C)C2)C1` gave a ring closure, isolated yield of 73%.
The molecule `CO[C@@H](C)c1ncc(N2CCN(C3CC3)CC2)cc1-c1c2c3cc(ccc3n1CC(F)(F)F)C1=CCCN(C1)C[C@H](NC(=O)OC(C)(C)C)C(=O)N1CCC[C@H](N1)C(=O)OCC(C)(C)C2` registered a ring closure, isolated yield (from CO[C@@H](C)c1ncc(N2CCN(C3CC3)CC2)cc1-c1c(CC(C)(C)CO)c2cc(C3=CCCN(C[C@H](NC(=O)OC(C)(C)C)C(=O)N4CCC[C@@H](C(=O)O)N4)C3)ccc2n1CC(F)(F)F, EDCI/HOBt/DIEA, DCM, 10.8 mM, 25.0 °C) of 73%.
`CCn1c(-c2cc(N3CCN4CCOC[C@@H]4C3)cnc2[C@H](C)OC)c2c3cc(ccc31)-c1cc(CF)cc(c1)C[C@H](NC(=O)OC(C)(C)C)C(=O)N1CCC[C@H](N1)C(=O)OCC(C)(C)C2`: the ring closure, isolated yield (from CCn1c(-c2cc(N3CCN4CCOC[C@@H]4C3)cnc2[C@H](C)OC)c(CC(C)(C)CO)c2cc(-c3cc(CF)cc(C[C@H](NC(=O)OC(C)(C)C)C(=O)N4CCC[C@@H](C(=O)O)N4)c3)ccc21, EDCI/HOBt/DIEA, DCM, 11.3 mM, 0.0 °C) amounted to 69%.
Regarding `CCn1c(-c2cc(N3CCN4CCOC[C@@H]4C3)cnc2[C@H](C)OC)c2c3cc(ccc31)N1CCO[C@@H](C[C@H](NC(=O)OC(C)(C)C)C(=O)N3CCC[C@H](N3)C(=O)OCC(C)(C)C2)C1`, the ring closure, isolated yield (from CCn1c(-c2cc(N3CCN4CCOC[C@@H]4C3)cnc2[C@H](C)OC)c(CC(C)(C)CO)c2cc(N3CCO[C@@H](C[C@H](NC(=O)OC(C)(C)C)C(=O)N4CCC[C@@H](C(=O)O)N4)C3)ccc21, EDCI/HOBt/NMM, DCM, 11.2 mM, 25.0 °C) stood at 51%.
Consider `CCn1c(-c2cc(N3CCN4CCCC[C@@H]4C3)cnc2[C@H](C)OC)c2c3cc(ccc31)-c1cc(cc(C(F)F)c1)C[C@H](NC(=O)OC(C)(C)C)C(=O)N1CCC[C@H](N1)C(=O)OCC(C)(C)C2`, for which, under “from CCn1c(-c2cc(N3CCN4CCCC[C@@H]4C3)cnc2[C@H](C)OC)c(CC(C)(C)CO)c2cc(-c3cc(C[C@H](NC(=O)OC(C)(C)C)C(=O)N4CCC[C@@H](C(=O)O)N4)cc(C(F)F)c3)ccc21, EDCI/HOBt/DIEA, DCM, 5.27 mM, 25.0 °C”, the ring closure, isolated yield worked out at 90%.
Take `CCn1c(-c2cc(N3CCN4CCCC[C@@H]4C3)cnc2[C@H](C)OC)c2c3cc(ccc31)-c1csc(n1)C[C@H](NC(=O)OC(C)(C)C)C(=O)N1CCC[C@H](N1)C(=O)OCC(C)(C)C2`: the ring closure, isolated yield (from CCn1c(-c2cc(N3CCN4CCCC[C@@H]4C3)cnc2[C@H](C)OC)c(CC(C)(C)CO)c2cc(-c3csc(C[C@H](NC(=O)OC(C)(C)C)C(=O)N4CCC[C@@H](C(=O)O)N4)n3)ccc21, EDCI/HOBt/DIPEA, DCM, 11.3 mM, 25.0 °C) amounted to 49%.
`CO[C@@H](C)c1ncc(N2CCN3CCOC[C@@H]3C2)cc1-c1c2c3cc(ccc3n1CC(F)(F)F)N1CCO[C@@H](C[C@H](NC(=O)OC(C)(C)C)C(=O)N3CCC[C@H](N3)C(=O)OCC(C)(C)C2)C1` yielded a ring closure, isolated yield (from CO[C@@H](C)c1ncc(N2CCN3CCOC[C@@H]3C2)cc1-c1c(CC(C)(C)CO)c2cc(N3CCO[C@@H](C[C@H](NC(=O)OC(C)(C)C)C(=O)N4CCC[C@@H](C(=O)O)N4)C3)ccc2n1CC(F)(F)F, EDCI/HOBt/NMM, DCM, 10.6 mM, 25.0 °C) of 48%.
Regarding `CCn1c(-c2cc(N3CCN(C4CC4)CC3)cnc2[C@H](C)OC)c2c3cc(ccc31)N1CCO[C@@H](C[C@H](NC(=O)OCc3ccccc3)C(=O)N3CCC[C@H](N3)C(=O)OCC(C)(C)C2)C1`, the ring closure, isolated yield (from CCn1c(-c2cc(N3CCN(C4CC4)CC3)cnc2[C@H](C)OC)c(CC(C)(C)CO)c2cc(N3CCO[C@@H](C[C@H](NC(=O)OCc4ccccc4)C(=O)N4CCC[C@@H](C(=O)O)N4)C3)ccc21, EDCI/HOBt/DIEA, DCM, 11.3 mM, 30.0 °C) was determined as 50%.
On to `CO[C@@H](C)c1ncc(N2CCN3CCOC[C@@H]3C2)cc1-c1c2c3cc(ccc3n1CC(F)(F)F)-c1csc(n1)C[C@H](NC(=O)OC(C)(C)C)C(=O)N1CCC[C@H](N1)C(=O)OCC(C)(C)C2`, for which, under “from CO[C@@H](C)c1ncc(N2CCN3CCOC[C@@H]3C2)cc1-c1c(CC(C)(C)CO)c2cc(-c3csc(C[C@H](NC(=O)OC(C)(C)C)C(=O)N4CCC[C@@H](C(=O)O)N4)n3)ccc2n1CC(F)(F)F, EDCI/HOBt/DIEA, DCM, 10.6 mM, 25.0 °C”, the ring closure, isolated yield was determined as 64%.
Consider `CCn1c(-c2cc(N3CCN4CCC[C@@H]4C3)cnc2[C@H](C)OC)c2c3cc(ccc31)-c1csc(n1)C[C@H](NC(=O)OC(C)(C)C)C(=O)N1CCC[C@H](N1)C(=O)OCC(C)(C)C2`, for which the ring closure, isolated yield (from CCn1c(-c2cc(N3CCN4CCC[C@@H]4C3)cnc2[C@H](C)OC)c(CC(C)(C)CO)c2cc(-c3csc(C[C@H](NC(=O)OC(C)(C)C)C(=O)N4CCC[C@@H](C(=O)O)N4)n3)ccc21, EDCI/HOBt/DIEA, DCM, 111.6 mM, 25.0 °C, 16.0 h) came out at 37%.
Turning to `CCn1c(-c2cc(N3CCN(C4CC4)CC3)cnc2[C@H](C)OC)c2c3cc(ccc31)-c1cccc(c1)C[C@H](NC(=O)OC(C)(C)C)C(=O)N1CCC[C@H](N1)C(=O)OCC(C)(C)C2`, the ring closure, isolated yield (from CCn1c(-c2cc(N3CCN(C4CC4)CC3)cnc2[C@H](C)OC)c(CC(C)(C)CO)c2cc(-c3cccc(C[C@H](NC(=O)OC(C)(C)C)C(=O)N4CCC[C@@H](C(=O)O)N4)c3)ccc21, EDCI/HOBt/DIEA, DCM, 14.4 mM, 25.0 °C) is 64%.
As to `CCn1c(-c2cc(N3CCN(C(=O)OCc4ccccc4)CC3)cnc2[C@H](C)OC)c2c3cc(ccc31)-c1csc(n1)C[C@H](NC(=O)OC(C)(C)C)C(=O)N1CCC[C@H](N1)C(=O)OCC(C)(C)C2`, the ring closure, isolated yield (from CCn1c(-c2cc(N3CCN(C(=O)OCc4ccccc4)CC3)cnc2[C@H](C)OC)c(CC(C)(C)CO)c2cc(-c3csc(C[C@H](NC(=O)OC(C)(C)C)C(=O)N4CCC[C@@H](C(=O)O)N4)n3)ccc21, EDCI/HOBt/DIPEA, MeCN, 10.3 mM, 25.0 °C) was determined as 55%.
In turn, `CO[C@@H](C)c1ncc(N2CCN(C3CC3)CC2)cc1-c1c2c3cc(ccc3n1CC(F)(F)F)N1CCO[C@@H](C[C@H](NC(=O)OC(C)(C)C)C(=O)N3CCC[C@H](N3)C(=O)OCC(C)(C)C2)C1` yielded a ring closure, isolated yield (from CO[C@@H](C)c1ncc(N2CCN(C3CC3)CC2)cc1-c1c(CC(C)(C)CO)c2cc(N3CCO[C@@H](C[C@H](NC(=O)OC(C)(C)C)C(=O)N4CCC[C@@H](C(=O)O)N4)C3)ccc2n1CC(F)(F)F, EDCI/HOBt/DIEA, DCM, 9.22 mM, 25.0 °C) of 64%.
For `CCn1c(-c2cc(N3CCN4CCOC[C@@H]4C3)cnc2[C@H](C)OC)c2c3cc(ccc31)-c1csc(n1)C[C@H](NC(=O)OC(C)(C)C)C(=O)N1CCC[C@H](N1)C(=O)OCC(C)(C)C2`, the ring closure, isolated yield (from CCn1c(-c2cc(N3CCN4CCOC[C@@H]4C3)cnc2[C@H](C)OC)c(CC(C)(C)CO)c2cc(-c3csc(C[C@H](NC(=O)OC(C)(C)C)C(=O)N4CCC[C@@H](C(=O)O)N4)n3)ccc21, EDCI/HOBt/DIPEA, DCM, 11.3 mM, 25.0 °C) is 52%.
As for `CCn1c(-c2cc(N3CCN4CCC[C@@H]4C3)cnc2[C@H](C)OC)c2c3cc(ccc31)-c1cccc(c1)C[C@H](NC(=O)OC(C)(C)C)C(=O)N1CCC[C@H](N1)C(=O)OCC(C)(C)C2`, under “from CCn1c(-c2cc(N3CCN4CCC[C@@H]4C3)cnc2[C@H](C)OC)c(CC(C)(C)CO)c2cc(-c3cccc(C[C@H](NC(=O)OC(C)(C)C)C(=O)N4CCC[C@@H](C(=O)O)N4)c3)ccc21, EDCI/HOBt/DIPEA, DCM, 16.7 mM, 25.0 °C”, the ring closure, isolated yield came to 42%.
